Test results taken from article PMC9151520 (Archives of Toxicology, 2022).
Values joined by “and” are separate entries in the source; they are usually repeats but may differ in a detail not shown here. Identical values can stand only once. Counter-ions that a name gives are not always drawn. Like-named read-outs stand apart in the source and are kept apart here.

Columns and labels:
[1] = test system: p53 signaling (p53RE-bla HCT-116 cells); experiment: cells; type: cell-based
[2] = test system: p53 signaling (p53RE-bla HCT-116 cells)
[3] = test system: p53RE-bla HCT-116 cells
[4] = test system: p53 signaling (p53RE-bla HCT-116 cells); experiment: cells; settings: Homo sapiens
[5] = test system: p53 signaling (p53RE-bla HCT-116 cells); experiment: cells; type: cell-based; remark: listed apart in the source
[6] = test system: p53 signaling (p53RE-bla HCT-116 cells); experiment: cells; type: cell-based; settings: for Emax: HCT-116, read-out: efficacy
[7] = test system: p53 signaling (p53RE-bla HCT-116 cells); settings: for EC50: read-out: p53 activation EC50
[8] = test system: p53 signaling (p53RE-bla HCT-116 cells); experiment: cells; settings: Homo sapiens; remark: listed apart in the source
[9] = HCT-116, read-out: p53 activation EC50, HLM
[10] = HCT-116, read-out: p53 activation EC50, cherry pick confirmation
[11] = HCT-116, read-out: p53 activation efficacy, cherry pick confirmation

## COP(=O)(OC)OC(=CCl)c1cc(Cl)c(Cl)cc1Cl [Tetrachlorovinphos]
[1]
  p53 activation EC50, No MS: inactive
  p53 activation Efficacy, No MS: inactive
[2]
  p53 activation EC50, HLM: inactive
[3]
  Viability EC50, HLM: inactive
  Viability EC50, No MS: inactive
  Viability EC50, RLM: inactive
  Viability Efficacy, HLM: inactive
  Viability Efficacy, No MS: inactive
  Viability Efficacy, RLM: inactive
[4]; [9]
  EC50: 16.4 µM

## COP(=O)(OC)O/C(C)=C/C(=O)N(C)C [Dicrotophos]
[1]
  p53 activation EC50: inactive
  p53 activation efficacy: inactive
[5]; Homo sapiens, HCT-116, 0.5 h
  EC50: 11.5 µM
[6]; Homo sapiens, HCT-116
  EC50: 9.07 µM
[7]
  p53 activation efficacy: 47.1617
  EC50: 14.3 µM
[2]
  p53 activation EC50: inactive
[3]
  Viability EC50: inactive
  Viability efficacy: inactive
[8]; HCT-116
  EC50: 11.4 µM
[8]; HCT-116, read-out: efficacy
  Emax: 40.6%

## Nc1ccn([C@@H]2O[C@H](CO)[C@@H](O)[C@@H]2O)c(=O)n1 [Cytarabine hydrochloride]
[1]
  p53 activation efficacy: 74.252
[7]
  p53 activation EC50: inactive
  p53 activation efficacy: inactive
[2]
  p53 activation EC50: inactive
[3]
  Viability EC50: inactive
  Viability efficacy: inactive
[4]; HCT-116, read-out: p53 activation EC50
  EC50: 3.49 µM

## Cc1cc(OC(=O)N(C)C)nn1C(=O)N(C)C [Dimetilan]
[1]
  p53 activation EC50, cherry pick confirmation: inactive
  p53 activation EC50, primary screening: inactive
  p53 activation efficacy, cherry pick confirmation: inactive
  p53 activation efficacy, primary screening: inactive
[5]
  EC50: Inactive
[6]; Homo sapiens, HCT-116
  EC50: 5.11 µM
[6]; Homo sapiens
  Emax: 43.6%
[2]
  p53 activation EC50, cherry pick confirmation: inactive
  p53 activation efficacy, cherry pick confirmation: inactive
[3]
  Viability EC50, cherry pick confirmation: inactive
  Viability EC50, primary screening: inactive
  Viability efficacy, cherry pick confirmation: inactive
  Viability efficacy, primary screening: inactive
[8]; HCT-116
  EC50: 5.44 µM
[8]; HCT-116, read-out: efficacy
  Emax: 34.6%
[8]; [10]
  EC50: 6.19 µM
[8]; [11]
  Emax: 33.8%

## Aflatoxin B1 [reference compound]
[5]
  EC50: inactive
[6]
  EC50: inactive
[7]
  p53 activation efficacy: 77.9079 and 59.8273
  potency in the confirmation study compared to the primary screening: tenfold higher potency
[2]
  EC50: 4.5 µM and 5.3 µM and 3 µM

## CCc1c2c(nc3ccc(OC(=O)N4CCC(N5CCCCC5)CC4)cc13)-c1cc3c(c(=O)n1C2)COC(=O)[C@]3(O)CC [Irinotecan, reference compound]
[5]
  EC50: Inactive
[6]; Homo sapiens, HCT-116
  EC50: 0.29 µM
[6]; Homo sapiens
  Emax: 79.9%
[8]; HCT-116
  EC50: 0.23 µM
[8]; HCT-116, read-out: efficacy
  Emax: 109%

## CNC(=O)Oc1ccc2c(c1)[C@]1(C)CCN(C)[C@@H]1N2C [Physostigmine]
[1]
  p53 activation EC50, No MS: inactive
  p53 activation Efficacy, No MS: inactive
[7]
  p53 activation EC50, RLM: inactive
  p53 activation Efficacy, RLM: inactive
[2]
  p53 activation EC50, HLM: inactive
[3]
  Viability EC50, HLM: inactive
  Viability EC50, No MS: inactive
  Viability EC50, RLM: inactive
  Viability Efficacy, HLM: inactive
  Viability Efficacy, No MS: inactive
  Viability Efficacy, RLM: inactive
[4]; [9]
  EC50: 7.07 µM

## COP(=S)(OC)Oc1nc(Cl)c(Cl)cc1Cl [Chlorpyrifos-methyl]
[1]
  p53 activation EC50, cherry pick confirmation: inactive
  p53 activation EC50, primary screening: inactive
  p53 activation efficacy, cherry pick confirmation: inactive
  p53 activation efficacy, primary screening: inactive
[5]; Homo sapiens, HCT-116, 0.5 h
  EC50: 1.78 µM
[6]; Homo sapiens, HCT-116
  EC50: 24 µM
[2]
  p53 activation EC50, cherry pick confirmation: inactive
  p53 activation EC50, primary screening: inactive
  p53 activation efficacy, cherry pick confirmation: inactive
  p53 activation efficacy, primary screening: inactive
[3]
  Viability EC50, cherry pick confirmation: inactive
  Viability EC50, primary screening: inactive
  Viability efficacy, cherry pick confirmation: inactive
  Viability efficacy, primary screening: inactive
[8]; HCT-116
  EC50: 15.5 µM
[8]; HCT-116, read-out: efficacy
  Emax: 45%
[8]; [10]
  EC50: 21.6 µM
[8]; HCT-116, read-out: p53 activation EC50, primary screening
  EC50: 11 µM
[8]; [11]
  Emax: 62.8%
[8]; HCT-116, read-out: p53 activation efficacy, primary screening
  Emax: 36.2%

## COP(=S)(OC)Oc1cc(Cl)c(Br)cc1Cl [Bromofos]
[1]
  p53 activation EC50: inactive
  p53 activation efficacy: inactive
[5]; Homo sapiens, HCT-116, 0.5 h
  EC50: 16.2 µM
[5]; Homo sapiens, HCT-116, read-out: efficacy
  Emax: 40.6%
[6]
  EC50: Inactive
[7]
  p53 activation efficacy: 62.741
  EC50: 15.1 µM
[2]
  p53 activation EC50: inactive
[3]
  Viability EC50: inactive
  Viability efficacy: inactive
[8]; HCT-116
  EC50: 17.8 µM
[8]; HCT-116, read-out: efficacy
  Emax: 66.6%
